Drawing on BindingDB's records for doi:10.1021/acs.jmedchem.7b00606 (Griffith University, 2017), this text covers Kd for one molecule.

Bounds are passed on as bounds.

This assay has as its target Carbonic anhydrase 2 (Homo sapiens, UniProt P00918). Kind of assay: Binding affinity to human carbonic anhydrase 2 by surface plasmon resonance spectrometry.

As a reminder, the Kd is the constant that tells how readily two partners part at equilibrium. Low values mean a tighter complex, high ones a looser complex. In the case of `O=c1[nH]c(O)c(-c2ccccc2)[nH]1` [5-Phenyl-imidazolidine-2,4-dione], the Kd was > 2000 µM.
